The test system of one data set is B16.F10 cells. The experiment in a line: Efficacy of CDP-docetaxel nanoparticles in a murine melanoma model. It is filed as in vivo, male C57BL/6 mice. The method, then:
(§1) Animals were monitored for any morbidity and adverse effect three times a week.
Tumor volume was calculated with a (width×width×length)/2 mm^3 formula.

Data set [1] in a line: Tolerability (body weight) in the B16.F10 murine melanoma model. The method, then: as §1
Health monitoring was conducted three times a week to evaluate lethargy, tremors, hypothermia, ataxia, hind limb paralysis etc. The criteria at which a mouse was removed from the study were >20% body weight loss or severe morbidity or hind limb paralysis.

[2] abbreviates: 15 mg/kg IV, weekly schedule for 3 injections.
The mark [3] stands for this setting: 30 mg/kg IV, weekly schedule for 3 injections (sections 1.4, 2.3, 4.2, 5.2).

Where “and” joins values, the source holds several entries; their conditions need not be identical. Equal values may be shown once.

Consider “CDP-2′-alanine glycolate-docetaxel [CDP-Ala Gly-DTX formulation]”, for which the “day on which the mean tumor volume endpoint (≧3000 mm^3) was reached” value (“day” below) in the data set on B16.F10 cells (mouse, in vivo) is 43 days and 33 days and 29 days.
With “CDP-2′-aminoethoxyethoxy-Docetaxel [CDP-aminoethoxyethoxy-DTX formulation]”, in the data set with B16.F10 cells (setting [2]), the “day” value turned out to be 33 days.
As to “CDP-dithiolethyloxy-carbonate-docetaxel [CDP-ethane-S-S-ethane-DTX formulation]”, in the data set with B16.F10 cells (setting [2]), the “Tumor growth delay (TGD)” value turned out to be 2 days, the “day” value stood at 21 days and the “increase in TGD” value came out at 11%. Besides, in the data set with B16.F10 cells (setting [3]), the “Tumor growth delay (TGD)” value is listed as 5 days, the “day” value was found to be 24 days and the “increase in TGD” value is given as 26%. For the same substance, the “Maximum body weight loss (%)” value in data set [1] (setting [2]) is “did not cause any body weight loss”. Besides, the “Maximum body weight loss (%)” value in data set [1] (setting [3]) is given as “did not cause any significant body weight loss”.
